Assay results taken from patent US6770728B2, “Process for preparing ocular lens with urethane compound and process for preparing urethane compound for medical instruments” (Menicon Co., Ltd., priority 1999, dated 2004).

Experiment: Solubility of catalysts in various solvents (maximum amount completely soluble)
Type: physicochemical
Procedure: Solubility of a various kind of catalysts in a various kind of solvents (water, methanol, acetone, acetonitrile, n-hexane, methylene chloride) was evaluated by studying maximum amount of catalysts completely soluble in a various kind of solvents.

Solubility (solvent: acetone): 1 mg/mL
Solubility (solvent: acetonitrile): insoluble
Solubility (solvent: methanol): 50 mg/mL
Solubility (solvent: methylene chloride): 10 mg/mL
Solubility (solvent: n-hexane): insoluble
Solubility (solvent: water): insoluble
Substance: Zinc acetylacetonate [ZnAA]
